Read-outs that look alike come from different tables or passages of the source.
How the values were obtained:
clinical = settings: both, human, plasma, oral, 120 mg
Description: Each participant completed 3 study periods: Screening, Treatment period (12 or 31 days), and Safety follow-up.
Participants were healthy males and females between the ages of 18 and 55 years old.
In Part B, a randomized controlled trial was conducted.

hCav3.3 = target: T1, hCav3.3 (Homo sapiens, UniProt Q9P0X4); experiment: PatchXpress patch clamp, voltage dependent block (half-inactivated state); format: cell-based
T1 construct: expressed in transfected cells; host or cells: HEK-293

[1] = Food effect (high-fat, high-calorie meal) on pharmacokinetics, single 20 mg dose; format: in vivo, human; settings: for Tmax / AUC(0-t) / AUC(0-inf) / Cmax: human, plasma, 20 mg; for Tmax: oral, single 20 mg; for AUC(0-t) / AUC(0-inf) / Cmax: po
Description: The effect of a high-fat, high-calorie meal on the pharmacokinetics of a compound of formula (II) was evaluated in an open-label, sequential fashion following a single 20 mg dose of formulation 5 in participants who had previously received a 20 mg dose of formulation 5 under fasted conditions.

T1 sequence (Q9P0X4 whole entry): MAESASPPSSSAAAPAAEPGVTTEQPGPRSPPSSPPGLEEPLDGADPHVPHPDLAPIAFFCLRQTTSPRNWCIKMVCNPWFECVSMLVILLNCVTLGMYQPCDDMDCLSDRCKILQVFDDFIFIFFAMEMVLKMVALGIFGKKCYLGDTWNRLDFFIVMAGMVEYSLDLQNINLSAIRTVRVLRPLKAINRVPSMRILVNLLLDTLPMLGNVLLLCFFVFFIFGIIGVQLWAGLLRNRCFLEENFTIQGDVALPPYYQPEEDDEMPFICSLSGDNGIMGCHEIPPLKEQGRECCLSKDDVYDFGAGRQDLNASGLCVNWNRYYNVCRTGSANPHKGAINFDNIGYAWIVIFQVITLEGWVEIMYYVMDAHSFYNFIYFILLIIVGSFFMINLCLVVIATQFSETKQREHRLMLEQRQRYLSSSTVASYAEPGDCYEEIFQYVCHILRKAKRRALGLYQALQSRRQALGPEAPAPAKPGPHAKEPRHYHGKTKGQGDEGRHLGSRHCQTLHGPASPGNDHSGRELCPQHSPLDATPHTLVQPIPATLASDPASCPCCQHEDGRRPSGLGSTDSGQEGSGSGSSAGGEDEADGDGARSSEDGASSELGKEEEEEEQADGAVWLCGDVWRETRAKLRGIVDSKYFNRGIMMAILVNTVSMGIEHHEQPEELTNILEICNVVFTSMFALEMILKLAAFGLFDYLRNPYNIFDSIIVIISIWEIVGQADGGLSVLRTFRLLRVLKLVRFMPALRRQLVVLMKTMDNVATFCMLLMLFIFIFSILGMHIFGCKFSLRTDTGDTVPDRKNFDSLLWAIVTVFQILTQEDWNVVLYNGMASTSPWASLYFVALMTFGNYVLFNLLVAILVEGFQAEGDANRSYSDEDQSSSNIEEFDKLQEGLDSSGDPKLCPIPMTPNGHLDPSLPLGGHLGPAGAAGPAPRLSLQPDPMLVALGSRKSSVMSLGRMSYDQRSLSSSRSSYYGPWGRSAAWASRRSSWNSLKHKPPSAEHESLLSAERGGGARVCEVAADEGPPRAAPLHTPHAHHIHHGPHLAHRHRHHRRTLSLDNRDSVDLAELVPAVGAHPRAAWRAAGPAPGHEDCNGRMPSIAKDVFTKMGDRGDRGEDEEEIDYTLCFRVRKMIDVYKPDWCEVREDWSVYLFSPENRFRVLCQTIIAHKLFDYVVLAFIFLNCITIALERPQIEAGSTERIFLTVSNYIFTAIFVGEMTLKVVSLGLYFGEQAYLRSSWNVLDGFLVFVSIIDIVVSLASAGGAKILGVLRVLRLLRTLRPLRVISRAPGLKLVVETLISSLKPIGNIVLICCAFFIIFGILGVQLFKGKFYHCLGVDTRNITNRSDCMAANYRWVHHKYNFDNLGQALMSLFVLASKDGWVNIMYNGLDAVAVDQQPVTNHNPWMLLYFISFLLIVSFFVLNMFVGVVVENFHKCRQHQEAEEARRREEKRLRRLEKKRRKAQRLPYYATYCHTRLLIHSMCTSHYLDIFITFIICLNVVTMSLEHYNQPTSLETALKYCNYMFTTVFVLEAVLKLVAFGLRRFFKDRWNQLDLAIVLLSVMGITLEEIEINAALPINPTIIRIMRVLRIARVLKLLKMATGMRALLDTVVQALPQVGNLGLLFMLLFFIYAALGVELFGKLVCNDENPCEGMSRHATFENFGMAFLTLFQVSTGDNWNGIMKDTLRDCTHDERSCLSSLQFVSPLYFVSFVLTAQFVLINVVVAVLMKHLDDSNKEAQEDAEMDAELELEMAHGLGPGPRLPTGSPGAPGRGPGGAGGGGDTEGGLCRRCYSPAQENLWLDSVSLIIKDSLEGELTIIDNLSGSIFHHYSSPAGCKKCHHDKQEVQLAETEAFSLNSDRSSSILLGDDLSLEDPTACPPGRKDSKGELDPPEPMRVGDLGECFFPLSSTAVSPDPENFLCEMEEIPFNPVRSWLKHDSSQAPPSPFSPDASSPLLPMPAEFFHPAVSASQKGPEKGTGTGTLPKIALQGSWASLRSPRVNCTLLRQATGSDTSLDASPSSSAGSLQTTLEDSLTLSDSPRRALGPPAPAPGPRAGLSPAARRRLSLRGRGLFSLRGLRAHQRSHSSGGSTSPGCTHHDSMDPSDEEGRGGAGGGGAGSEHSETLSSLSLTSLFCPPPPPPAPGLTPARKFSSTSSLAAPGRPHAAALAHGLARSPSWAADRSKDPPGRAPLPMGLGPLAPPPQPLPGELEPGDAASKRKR

Compound	AUC (clinical)	Cmax (clinical)	tonic block/voltage dependent block (TB/VDB) ratio (hCav3.3)	Tmax ([1]; fasted)	Tmax ([1]; high-fat, high-calorie meal)	AUC(0-t) ([1]; single 20 mg oral dose, fasted, read-out: AUClast, Fasted Geometric Mean (Adjusted))	AUC(0-inf) ([1]; single 20 mg oral dose, fasted, read-out: AUC∞, Fasted Geometric Mean (Adjusted))	Cmax ([1]; single 20 mg oral dose, fasted, read-out: Cmax, Fasted Geometric Mean (Adjusted))	AUC(0-t) ([1]; single 20 mg oral dose, high-fat/high-calorie meal, read-out: AUClast, Fed Geometric Mean (Adjusted))	AUC(0-inf) ([1]; single 20 mg oral dose, high-fat/high-calorie meal, read-out: AUC∞, Fed Geometric Mean (Adjusted))	Cmax ([1]; single 20 mg oral dose, high-fat/high-calorie meal, read-out: Cmax, Fed Geometric Mean (Adjusted))	AUClast Ratio (fed/fasted) ([1]; single 20 mg oral dose)	AUC∞ Ratio (fed/fasted) ([1]; single 20 mg oral dose)	Cmax Ratio (fed/fasted) ([1]; single 20 mg oral dose)
CC(C)(C)NC(=O)CN1CCC(CNC(=O)c2cc(F)cc(Cl)c2)CC1 [compound of formula (I), N-((1-(2-(tert-butylamino)-2-oxoethyl)piperidin-4-yl)methyl)-3-chloro-5-fluorobenzamide]	≥ 4650 ng·h/mL	≥ 390 ng/mL	–	–	–	–	–	–	–	–	–	–	–	–
CC(C)(C)NC(=O)CN1CCC(CNC(=O)c2cc(F)cc(Cl)c2)CC1.Cl [compound of formula (II), N-((1-(2-(tert-butylamino)-2-oxoethyl)piperidin-4-yl)methyl)-3-chloro-5-fluorobenzamide hydrochloride]	–	–	4.0	4 h	5 h	905 ng·h/mL	942 ng·h/mL	43.6 ng/mL	1040 ng·h/mL	1080 ng·h/mL	64.7 ng/mL	1.14	1.15	1.49
